Drawing on US6506766B1 (Abbott Laboratories, priority 1998, dated 2003), this text covers Ki for 22 compounds.

For experiment [1], the target named is T1, human progesterone receptor-A [PRA] isoform (Homo sapiens, UniProt P06401).
T1 construct: host or cells: insect SF21 cells (baculovirus)
T1 sequence (P06401 1-769 isoform P06401-2): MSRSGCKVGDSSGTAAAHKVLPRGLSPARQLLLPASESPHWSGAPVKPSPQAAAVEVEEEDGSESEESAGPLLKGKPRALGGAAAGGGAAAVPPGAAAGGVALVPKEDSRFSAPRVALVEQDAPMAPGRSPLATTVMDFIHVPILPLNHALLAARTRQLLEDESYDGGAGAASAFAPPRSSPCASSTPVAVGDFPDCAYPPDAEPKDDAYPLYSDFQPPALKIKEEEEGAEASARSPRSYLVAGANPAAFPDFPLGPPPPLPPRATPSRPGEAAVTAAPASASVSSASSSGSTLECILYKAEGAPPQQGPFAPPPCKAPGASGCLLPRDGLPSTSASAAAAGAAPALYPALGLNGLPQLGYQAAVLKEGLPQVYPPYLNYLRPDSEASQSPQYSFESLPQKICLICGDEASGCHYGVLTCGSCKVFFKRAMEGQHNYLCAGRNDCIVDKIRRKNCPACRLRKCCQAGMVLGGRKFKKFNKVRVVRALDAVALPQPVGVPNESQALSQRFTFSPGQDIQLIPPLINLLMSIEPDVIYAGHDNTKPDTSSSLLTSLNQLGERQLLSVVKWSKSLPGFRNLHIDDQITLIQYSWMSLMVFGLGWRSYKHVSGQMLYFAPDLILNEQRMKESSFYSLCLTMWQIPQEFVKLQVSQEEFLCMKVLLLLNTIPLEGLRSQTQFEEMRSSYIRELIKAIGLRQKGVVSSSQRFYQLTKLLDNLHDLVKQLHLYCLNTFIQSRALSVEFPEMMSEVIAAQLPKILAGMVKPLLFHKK
Nature of the experiment: Radioligand binding with human progesterone receptor cytosol ([3H]-progesterone competition). As to conditions: PRA cytosol expressed in insect SF21 cells, [3H]Prog ~0.8 nM, 4° C. overnight; Ki by Cheng-Prusoff, KL ~4.5 nM; read-out: Ki (nM) PR.

In experiment [2] the target is T2, human glucocorticoid receptor-α [GRX] isoform (Homo sapiens, UniProt P04150).
T2 construct: host or cells: insect SF21 cells (baculovirus)
T2 sequence (P04150 1-777): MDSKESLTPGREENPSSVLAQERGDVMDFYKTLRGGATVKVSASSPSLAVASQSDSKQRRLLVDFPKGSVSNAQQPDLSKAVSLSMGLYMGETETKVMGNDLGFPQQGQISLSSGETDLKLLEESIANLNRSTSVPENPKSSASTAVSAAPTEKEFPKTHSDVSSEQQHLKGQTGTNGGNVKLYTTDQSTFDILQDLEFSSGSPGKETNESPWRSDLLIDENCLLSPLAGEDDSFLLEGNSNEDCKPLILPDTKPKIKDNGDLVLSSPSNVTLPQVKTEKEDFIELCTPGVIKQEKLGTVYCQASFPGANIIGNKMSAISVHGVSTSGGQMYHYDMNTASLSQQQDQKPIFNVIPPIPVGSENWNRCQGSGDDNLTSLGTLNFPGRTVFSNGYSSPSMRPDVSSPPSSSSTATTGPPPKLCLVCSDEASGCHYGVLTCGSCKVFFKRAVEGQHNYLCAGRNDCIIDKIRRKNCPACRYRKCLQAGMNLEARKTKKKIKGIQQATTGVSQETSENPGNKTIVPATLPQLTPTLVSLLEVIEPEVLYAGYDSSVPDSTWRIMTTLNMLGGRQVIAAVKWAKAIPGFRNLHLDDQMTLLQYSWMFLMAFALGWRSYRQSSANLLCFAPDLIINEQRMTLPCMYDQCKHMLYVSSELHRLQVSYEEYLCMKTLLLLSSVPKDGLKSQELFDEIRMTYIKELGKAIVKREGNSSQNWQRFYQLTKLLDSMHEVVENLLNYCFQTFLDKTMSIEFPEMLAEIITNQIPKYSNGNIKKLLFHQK
The experiment is described as follows: Radioligand binding with human glucocorticoid receptor cytosol ([3H]-dexamethasone competition). As to conditions: GRX cytosol expressed in insect SF21 cells, [3H]-Dex ~0.9 nM, 4° C. overnight; Ki by Cheng-Prusoff, KL ~[…]; read-out: Ki (nM) GR.
From the text: Briefly, cytosol preparations of human glucocorticoid receptor-α [GRX] isoform and human progesterone receptor-A [PRA] isoform were obtained from Ligand Pharmaceuticals (San Diego, Calif.). Both receptor cDNAs were cloned into baculovirus expression vectors and expressed in insect SF21 cells. [^3H]-dexamethasone (Dex, specific activity 82-86 Ci/mmole) and [^3H]-progesterone (Prog, specific activity 97-102 Ci/mmol) were purchased from Amersham Life Sciences (Arlington Heights, Ill.). Glass fiber type C multiscreen MAFC NOB plates were from Millipore (Burlington, Mass.). Hydroxyapatide Bio-Gel HTP gel was from Bio-Rad Laboratories (Hercules, Calif.). Tris(hydroxymethyl)aminomethane (Tris), ethylenediaminetetraacetic acid (EDTA), glycerol, dithiothreitol (DTT) and sodium moylybdate were obtained from Sigma Chemicals (St. Louis, Mo.). Microscint-20 scintillation fluid was from Packard Instrument (Meriden, Conn.).
Stock solutions (32 mM) of compounds were prepared in dimethylsulfoxide (DMSO), and 50× solutions of test compounds were prepared from the 32 mM solution with a 50:50 mixture of DMSO/ethanol. The 50× solution was then diluted with binding buffer that contained 10 mM Tri-HCl, 1.5 mM EDTA, 10% glycerol, 1 mM DTT, 20 mM sodium molybdate, pH 7.5 @4° C. 1% DMSO/ethanol was present in the binding assay.
For GR binding assays, [^3H]-Dex (˜35,000 dpm (˜0.9 nM)), GRX cytosol (˜35 μg protein), test compounds and binding buffer were mixed in a total volume of 200 μL and incubated at 4° C. overnight in a plate shaker. Specific binding was defined as the difference between binding of [^3H]Dex in the absence and in the presence of 1 μM unlabelled Dex.
After an overnight incubation, 50 μL of hydroxyapatite (25% weight/volume) slurry were added to each well and plates were incubated for 10 min at 0° C. in a plate shaker. Plates were suctioned with a Millipore vacuum manifold and each well was rinsed with 300 μL of ice-cold binding buffer. A 250 μL aliquot of Packard Microscint-20 was added to each well and the wells were shaken at room temperature for 20 minutes. The amount of radioactivity was determined with a Packard TopCount plate reader.
The Ki of test compounds was determined using the Cheng-Prusoff equation Ki=IC50/(1+[L*]/[KL]) where L* is the concentration of radioligand and KL is the dissociation constant of the radioligand determined from saturation analysis.

Usually Ki stands for the equilibrium dissociation constant of an inhibitor or competing ligand from its target. As for `COc1c(OC(=O)CCC(=O)N(C)C)ccc2c1-c1ccc3c(c1C(C(C)C)O2)C(C)=CC(C)(C)N3` (centres unmarked) [Example 423, 2,5-Dihydro-9-(4-N,N-dimethylamino-4-oxo-butanoyloxy)-10-methoxy-2,2,4-trimethyl-5-(1-methylethyl)-1H-[1]benzopyrano[3,4-f]quinoline], the Ki turned out to be 8180 nM in experiment [1] and 0.67 nM in experiment [2].

Turning to `CCc1cccc2c1-c1ccc3c(c1C(c1ccccc1)O2)C(C)=CC(C)(C)N3` (centres unmarked) [Example 70, 10-Ethyl-2,5-dihydro-2,2,4-trimethyl-5-phenyl-1H-[1]benzopyrano[3,4-f]quinoline], the inhibition constant (Ki) is 7300 nM in experiment [1] and 25.5 nM in experiment [2].

In the case of `C=CCC1Oc2ccc(OCSC)c(OC)c2-c2ccc3c(c21)C(C)=CC(C)(C)N3` (centres unmarked) [Example 436, 2,5-Dihydro-9-methylthiomethoxy-10-methoxy-2,2,4-trimethyl-5-allyl-1H-[1]benzopyrano[3,4-f]quinoline], the inhibition constant (Ki) is 5920 nM in experiment [1] and 18.8 nM in experiment [2].

Take `C=CCC1Oc2cccc(OC)c2-c2ccc3c(c21)C(C)=C(C)C(C)(C)N3` (centres unmarked) [Example 362, 2,5-Dihydro-10-methoxy-2,2,3,4-tetramethyl-5-allyl-1H-[1]benzopyrano[3,4-f]quinoline]: the Ki in experiment [1] came out at 3370 nM; in experiment [2] it was 6.5 nM.

Turning to `CC1=CC(C)(C)Nc2ccc3c(c21)C(c1ccccc1)Oc1cccc(C=O)c1-3` (centres unmarked) [Example 337, 2,5-Dihydro-10-formyl-5-phenyl-2,2,4-trimethyl-1H-[1]benzopyrano[3,4-f]quinoline], the Ki in experiment [1] is 702 nM; in experiment [2], 3.3 nM.

In the case of `COc1c(O)ccc2c1-c1ccc3c(c1/C(=C/c1cc(F)ccc1F)O2)C(C)=CC(C)(C)N3` [Example 366, Z-5-(2,5-Difluorobenzylidenyl)-9-hydroxy-10-methoxy-2,2,4-trimethyl-1H-2,5-dihydro-[1]benzopyrano[3,4-f]quinoline], the inhibitory constant (Ki) in experiment [1] came out at 83.9 nM; in experiment [2], 2.1 nM.

As for `COc1cccc2c1-c1ccc3c(c1C(c1cccc(-c4ccco4)c1)O2)C(C)=CC(C)(C)N3` (centres unmarked) [Example 112, 5-[3-(2-Furanyl)phenyl]-2,5-dihydro-10-methoxy-2,2,4-trimethyl-1H-[1]benzopyrano[3,4-f]quinoline], the Ki in experiment [1] was at least 10000 nM; in experiment [2] it was 31 nM.

Regarding `C=CCC1Oc2cccc(SC)c2-c2ccc3c(c21)C(C)=CC(C)(C)N3` (centres unmarked) [Example 343, 2,5-Dihydro-5-(3-propenyl)-10-methylthio-2,2,4-trimethyl-1H-[1]benzopyrano[3,4-f]quinoline], the Ki in experiment [1] was 4700 nM; in experiment [2] it was 5.2 nM.

For `COc1cccc2c1-c1ccc3c(c1C(c1cccc(CCOC(=O)N(C)C)c1)O2)C(C)=CC(C)(C)N3` (centres unmarked) [Example 317, 2,5-Dihydro-10-methoxy-5-(3-(2-(N,N-dimethylaminocarbonyloxy)ethyl)phenyl)-2,2,4-trimethyl-1H-[1]benzopyrano[3,4-f]quinoline], the Ki in experiment [1] is at least 10000 nM; in experiment [2], 6.5 nM.

Take `CC1=CC(C)(C)Nc2ccc3c(c21)/C(=C/c1ccccn1)Oc1ccc(O)c(Cl)c1-3` [Example 368, Z-10-Chloro-9-hydroxy-5-(2-picolinylidenyl)-2,2,4-trimethyl-2,5-dihydro-1H-[1]benzopyrano[3,4-f]quinoline]: the results for the Ki in experiment [1] and in experiment [2] were 61 nM and 0.21 nM, respectively.

Turning to `C=CCC1Oc2ccc(OC(=O)CCC(C)=O)c(OC)c2-c2ccc3c(c21)C(C)=CC(C)(C)N3` (racemic) [Example 434, (+/−)2,5-Dihydro-9-(4-oxo-pentanoyloxy)-10-methoxy-2,2,4-trimethyl-5-allyl-1H-[1]benzopyrano[3,4-f]quinoline], the Ki amounted to 123 nM in experiment [1] and 0.96 nM in experiment [2].

Turning to `COc1cccc2c1-c1ccc3c(c1C(C1CC1)O2)C(C)=CC(C)(C)N3` (centres unmarked) [Example 319, 2,5-Dihydro-10-methoxy-5-cyclopropyl-2,2,4-trimethyl-1H-[1]benzopyrano[3,4-f]quinoline], the Ki in experiment [1] was 492 nM; in experiment [2], 16 nM.

Take `COc1cccc2c1-c1ccc3c(c1C(c1ccccc1)O2)C(C)=CC(C)(C)N3` (centres unmarked) [Example 1, 2,5-Dihydro-10-methoxy-2,2,4-trimethyl-5-phenyl-1H-[1]benzopyrano[3,4-f]quinoline1H-[1]benzopyrano[3,4-f]quinoline]: the Ki in experiment [1] was at least 10000 nM; in experiment [2] it was 8.6 nM.

With `COc1c(O)ccc2c1-c1ccc3c(c1C(c1cccc(O)c1)O2)C(C)=CC(C)(C)N3` (centres unmarked) [Example 398, 2,5-Dihydro-9-hydroxy-10-methoxy-2,2,4-trimethyl-5-(3-hydroxyphenyl)-1H-[1]benzopyrano[3,4-f]quinoline], the values for the Ki in experiment [1] and in experiment [2] were 1080 nM and 6.7 nM, respectively.

As to `CC1=C[C@@H]([C@@H]2Oc3ccc(O)c(Cl)c3-c3ccc4c(c32)C(C)=CC(C)(C)N4)CCC1` [Example 417, (−)(5S,3′S)2,5-Dihydro-9-hydroxy-10-chloro-2,2,4-trimethyl-5-(1-methylcyclohexen-3-yl)-1H-[1]benzopyrano[3,4-f]quinoline], the Ki in experiment [1] is 10.5 nM; in experiment [2] it was 3 nM.

For the compound `COc1cccc2c1-c1ccc3c(c1C(CCOC(=O)N1CCOCC1)O2)C(C)=CC(C)(C)N3` (centres unmarked) [Example 201, 2,5-Dihydro-10-methoxy-5-(2-(N-morpholinocarbonyloxy)ethyl)-2,2,4-trimethyl-1H-[1]benzopyrano[3,4-f]quinoline], the Ki in experiment [1] is at least 10000 nM; in experiment [2], 114 nM.

For `COc1c(O)ccc2c1-c1ccc3c(c1C(=Cc1ccccc1)O2)C(C)=CC(C)(C)N3` [Example 406, 9-Hydroxy-10-methoxy-5-(phenylmethylene)-2,2,4-trimethyl-1H-2,5-dihydro-[1]benzopyrano[3,4-f]quinoline], the figures for the inhibitory constant (Ki) in experiment [1] and in experiment [2] were 97.9 nM and 2.3 nM, respectively.

For the compound `COc1cccc2c1-c1ccc3c(c1C(C(C)C)O2)C(C)=CC(C)(C)N3` (centres unmarked) [Example 58, 2,5-Dihydro-10-methoxy-2,2,4-trimethyl-5-(1-methylethyl)-1H-[1]benzopyrano[3,4-f]quinoline], the Ki was 8570 nM in experiment [1] and 9 nM in experiment [2].

On to `C=CCC1Oc2cccc(OC)c2-c2ccc3c(c21)C(CC)=CC(C)(C)N3` (centres unmarked) [Example 363, 2,5-Dihydro-10-methoxy-2,2-dimethyl-4-ethyl-5-allyl-1H-[1]benzopyrano[3,4-f]quinoline], for which the Ki is 3940 nM in experiment [1] and 5 nM in experiment [2].

Turning to `COc1cccc2c1-c1ccc3c(c1C([C@H]1C=C(CSC)CCC1)O2)C(C)=CC(C)(C)N3` (stereo in doubt) [Example 161], the Ki is at least 10000 nM in experiment [1] and 3.3 nM in experiment [2].

As to `COc1c(O)ccc2c1-c1ccc3c(c1C(c1ccccc1C)O2)C(C)=CC(C)(C)N3` (racemic) [Example 275, (±)2,5-Dihydro-9-hydroxy-10-methoxy-2,2,4-trimethyl-5-(2-methylphenyl)-1H-[1]benzopyrano[3,4-f]quinoline], the values for the inhibitory constant (Ki) in experiment [1] and in experiment [2] were 2870 nM and 11.7 nM, respectively.

As for `COc1cccc2c1-c1ccc3c(c1C(=Cc1cccc(Cl)n1)O2)C(C)=CC(C)(C)N3` [Example 352], the Ki was at least 10000 nM in experiment [1] and 58 nM in experiment [2].
